In the NIST ThermoML archive (doi:10.1016/j.fluid.2013.08.005):
Numbers after ± are expanded uncertainties.

Assay: mn = molality of the nth substance listed, in mol/kg
Conditions: 298.15 K, 101 kPa, Liquid; for electrical conductivity: Alternating current cell with electrodes; for mass density: Vibrating tube method

CCCCCC[N+](C)(C)C.[Br-] [hexyltrimethylammonium bromide] + O
electrical conductivity (m1 = 0.02501): 0.446 ± 0.018 S/m | electrical conductivity (m1 = 0.05001): 0.641 ± 0.026 S/m | electrical conductivity (m1 = 0.07505): 0.99 ± 0.04 S/m | electrical conductivity (m1 = 0.125): 1.02 ± 0.041 S/m | electrical conductivity (m1 = 0.13): 1.15 ± 0.046 S/m | electrical conductivity (m1 = 0.15): 1.3 ± 0.052 S/m | electrical conductivity (m1 = 0.1751): 1.72 ± 0.069 S/m | electrical conductivity (m1 = 0.25): 1.85 ± 0.074 S/m | electrical conductivity (m1 = 0.2751): 2.08 ± 0.083 S/m | electrical conductivity (m1 = 0.3251): 2.2 ± 0.088 S/m | electrical conductivity (m1 = 0.3501): 2.41 ± 0.096 S/m | electrical conductivity (m1 = 0.4001): 2.51 ± 0.1 S/m | electrical conductivity (m1 = 0.425): 2.79 ± 0.11 S/m | electrical conductivity (m1 = 0.5001): 3.53 ± 0.14 S/m | electrical conductivity (m1 = 0.7503): 3.83 ± 0.15 S/m | electrical conductivity (m1 = 0.8791): 4.07 ± 0.16 S/m | electrical conductivity (m1 = 1): 0.239 ± 0.0095 S/m | mass density (m1 = 0.02501): 997.79 ± 0.08 kg/m3 | mass density (m1 = 0.05001): 998.57 ± 0.08 kg/m3 | mass density (m1 = 0.07505): 999.34 ± 0.08 kg/m3 | mass density (m1 = 0.125): 1000.88 ± 0.08 kg/m3 | mass density (m1 = 0.13): 1001.05 ± 0.08 kg/m3 | mass density (m1 = 0.15): 1001.64 ± 0.08 kg/m3 | mass density (m1 = 0.1751): 1002.41 ± 0.08 kg/m3 | mass density (m1 = 0.25): 1004.69 ± 0.08 kg/m3 | mass density (m1 = 0.2751): 1005.39 ± 0.08 kg/m3 | mass density (m1 = 0.3251): 1006.85 ± 0.09 kg/m3 | mass density (m1 = 0.3501): 1007.63 ± 0.09 kg/m3 | mass density (m1 = 0.4001): 1009.06 ± 0.09 kg/m3 | mass density (m1 = 0.425): 1009.77 ± 0.09 kg/m3 | mass density (m1 = 0.5001): 1011.89 ± 0.09 kg/m3 | mass density (m1 = 0.7503): 1018.71 ± 0.1 kg/m3 | mass density (m1 = 0.8791): 1021.99 ± 0.11 kg/m3 | mass density (m1 = 1): 1025.02 ± 0.11 kg/m3 | mass density (m1 = 1.501): 1036.33 ± 0.15 kg/m3 | mass density (m1 = 2.001): 1046 ± 0.18 kg/m3
